Laboratory results as given in US8492564B2 (priority 2008, dated 2013).
Like-named read-outs stand apart in the source and are kept apart here.

How the values were obtained:
[1] = target: hKOPR (Homo sapiens (Human), UniProt P41145); experiment: biochemical; conditions: for Emax: read-out: Efficacy (Percent of the maximal effect of U50,488H)
[2] = target: human KOPR (hKOPR) (Homo sapiens (Human), UniProt P41145); assay type: binding
[3] = Forced swim test (FST); assay type: in vivo; conditions: rats
Protocol: The FST is a two day procedure in which rats swim under conditions in which escape is not possible. On the first day, the rats are forced to swim for 15 minutes. The rats initially search for an escape from the water, but eventually adopt a posture of immobility in which they make only the movements necessary to keep their heads above water. Upon re-testing one day later, latencies to become immobile (an indicator of how rapidly the rats “give up” in response to a familiar stressor) are decreased, which is inferred as despair. Standard antidepressants such as desipramine (DMI) and fluoxetine (FLX) extend latencies to become immobile. Drug efficacy in this animal model is predictive of antidepressant efficacy in humans. The FST has been described by Mague et al., J. Pharmacol. Exp. Ther. 305:323 (2003).

[4] = Intracranial self-stimulation (ICSS); assay type: in vivo; conditions: 1.0 mg/kg, IP, rats, 1-hour test sessions
[5] = Locomotor activity; assay type: in vivo; conditions: rats

| Compound | EC50 ([1]; read-out: EC50) | Emax [1] | Ki [2] | Efficacy (Percent of the maximal effect of U50,488H) [1] | EC50 [1] | effect in the forced swim test [3] | ICSS thresholds [4] | effect on locomotor activity [5] |
| --- | --- | --- | --- | --- | --- | --- | --- | --- |
| C=Cc1occc1[C@@H]1C[C@]2(C)[C@H]3C(=O)[C@@H](OC(C)=O)C[C@@H](C(=O)OC)[C@]3(C)CC[C@H]2C(=O)O1 [Compound 3] | 4.6 ± 0.1 nM | 120 ± 6% | 7.1 ± 0.1 nM |  |  |  |  |  |
| COC(=O)[C@@H]1C[C@H](OC(C)=O)C(=O)[C@H]2[C@@]1(C)CCC1C(=O)O[C@H](C(=O)O)C[C@@]12C (some centres unmarked) [Compound 7] | 167 ± 35 nM |  | 55 ± 23 nM | 99 ± 1% |  |  |  |  |
| CCOC[C@@H]1C[C@]2(C)[C@H]3C(=O)[C@@H](OC(C)=O)C[C@@H](C(=O)OC)[C@]3(C)CC[C@H]2C(=O)O1 [Compound 10] |  |  | 497 ± 13 nM |  | > 1000 nM |  |  |  |
| COC(=O)[C@@H]1C[C@H](OC(C)=O)C(=O)[C@H]2[C@@]1(C)CC[C@H]1C(=O)O[C@H](c3ccoc3)C[C@]21C [Salvinorin A, salvinorin A] |  |  |  |  |  | depressive-like effects | significantly elevated | without affecting locomotor activity |
| COC(=O)[C@@H]1C[C@H](OC(C)=O)C(=O)[C@H]2[C@@]1(C)CC[C@H]1C(=O)O[C@H](C(=O)c3cnccn3)C[C@]21C [Compound 16] | 195 ± 6 nM | 103 ± 3% | 83 ± 28 nM |  |  |  |  |  |
| COC(=O)[C@@H]1C[C@H](OC(C)=O)C(=O)[C@H]2[C@@]1(C)CC[C@H]1C(=O)O[C@H](C(=O)OC(C)C)C[C@]21C [Compound 20] | 337 ± 54 nM | 94 ± 2% | 109 ± 12 nM |  |  |  |  |  |
| COC(=O)[C@@H]1C[C@H](OC(C)=O)C(=O)[C@H]2[C@@]1(C)CC[C@H]1C(=O)O[C@H](COC(C)=O)C[C@]21C [Compound 11] | 299 ± 13 nM | 113 ± 3% | 555 ± 97 nM |  |  |  |  |  |
| COC(=O)[C@@H]1C[C@]2(C)[C@H]3C(=O)[C@@H](OC(C)=O)C[C@@H](C(=O)OC)[C@]3(C)CC[C@H]2C(=O)O1 [Compound 18] | 361 ± 25 nM | 99 ± 2% | 154 ± 27 nM |  |  |  |  |  |
| COC[C@@H]1C[C@]2(C)[C@H]3C(=O)[C@@H](OC(C)=O)C[C@@H](C(=O)OC)[C@]3(C)CC[C@H]2C(=O)O1 [Compound 9] | 330 ± 30 nM | 98 ± 2% | 498 ± 71 nM |  |  |  |  |  |
| COC(=O)[C@@H]1C[C@H](OC(C)=O)C(=O)[C@H]2[C@@]1(C)CC[C@H]1C(=O)O[C@H](C(O)c3ccco3)C[C@]21C (some centres unmarked) [Compound 17] | 36 ± 5 nM | 114 ± 4% | 20 ± 2 nM |  |  |  |  |  |
| CCOC(=O)[C@@H]1C[C@]2(C)[C@H]3C(=O)[C@@H](OC(C)=O)C[C@@H](C(=O)OC)[C@]3(C)CC[C@H]2C(=O)O1 [Compound 19] | 508 ± 8 nM | 94 ± 2% | 196 ± 23 nM |  |  |  |  |  |
| COC(=O)[C@@H]1C[C@H](OC(C)=O)C(=O)[C@H]2[C@@]1(C)CC[C@H]1C(=O)O[C@H](C(=O)c3cccs3)C[C@]21C [Compound 13] | 101 ± 6 nM | 103 ± 1% | 38 ± 10 nM |  |  |  |  |  |
